Results from patent publication US4866040A, “Aminocarnitine directed pharmaceutical agents” (priority 1987, dated 1989).
Square brackets hold non-standard residues; d marks the D form. Peptide text beside a SMILES is read from it. Cya = N[CH](CS(=O)(=O)O)C(=O)O

How the values were obtained:
[1] = system: platelet Ca-activated protease; experiment: inhibition of platelet Ca-activated protease; assay type: biochemical; conditions: final in-vitro conc. 1 mM
Description: The following results were obtained for inhibition of platelet Ca-activated protease: […]

[2] = system: muscle Ca-activated protease; experiment: in-vivo administration, inhibition of muscle Ca-activated protease; parameters: species or system rats; conditions: for % Inhibition of muscle Ca-activated protease: 2 hours post IP injection
[3] = system: Ca-activated protease; experiment: in vitro inhibition of Ca-activated protease; assay type: biochemical; conditions: for % of Control (Ca-activated protease activity): in vitro, 100 ug; for % of Control (Ca-activated protease activity) after hydrolysis: 100ug, hydrolysis at 60° C., pH 2
Description: It has been shown that in vitro carnitylleucylargininal inhibits Ca-activated protease as well as leupeptin, viz.

[4] = active transport; cited from earlier work
[5] = in vivo, po; cited from earlier work

| Molecule | % Inhibition of platelet Ca-activated protease [1] [%] | % of Control (Ca-activated protease activity) [3] [%] | other results |
| --- | --- | --- | --- |
| CC(C)CC(NC(=O)C(N)CS(=O)(=O)O)C(=O)NC(C=O)CCCNC(=N)N (stereo not drawn) [cysteicleucylargininal] (H-[Cya]-Leu-Arg-aldehyde; configuration not given here) | 98 | – | – |
| carnitylleucylargininal | – | 4.6 | % Inhibition of muscle Ca-activated protease ([2]; 19 umoles): 48%; effectiveness per umole relative to leupeptin in inhibiting Ca-activated protease in skeletal muscle ([2]; injected into rats): about ten times more effective per umole |
| C[N+](C)(C)CC(O)CC(=O)[O-] (stereo not shown) [carnitine] | – | 84 | concentration in cardiac and skeletal muscle relative to plasma [4]: 50-100 times |
| CC(=O)N[C@@H](CC(C)C)C(=O)N[C@@H](CC(C)C)C(=O)N[C@H](C=O)CCCNC(=N)N [leupeptin] | 98 | 7.9 | % Inhibition of muscle Ca-activated protease ([2]; 74 umoles): 20% |
| E-aminoadipic acid [E-aminoadipic acid (CDI treated)] | 0 | – | – |
| CC(C)C[C@H](N)C(=O)N[C@H](C=O)CCCNC(=N)N [leucylargininal, leucyl argininal] | 94 | – | – |
| N[C@@H](CS(=O)(=O)O)C(=O)O [Cysteic acid (CDI treated), cysteic acid] | 0 | – | – |
| C[N+](C)(C)C[C@H](N)CC(=O)[O-] [aminocarnitine] | – | – | toxicity when fed orally [5]: non-toxic |
| carnitylleucylargininal dibutylacetal | – | – | % of Control (Ca-activated protease activity) after hydrolysis ([3]; 0 time): 17%; % of Control (Ca-activated protease activity) after hydrolysis ([3]; 3 hours): 1.2%; % of Control (Ca-activated protease activity) after hydrolysis ([3]; 24 hours): 100% |
